Series [1] deals with T1, Cra (catabolite repressor/activator) (Escherichia coli, UniProt P0ACP1, R57K/A58T/G59N/R60Q/S75H/D148I/R149I, form not given).
T1 construct: full-length, His6-tagged (tag encoded by the 3' primer, C-terminal), pET28a, expressed in E. coli BL21, Ni resin
Nature of the series: isothermal titration calorimetry, one-site fit. It is filed as binding. The settings on record: 25 °C; 15 μM protein, 50 mM FBP injected; Tang1544 mutant.

Series [2] concerns the target T2, Cra (catabolite repressor/activator) (Escherichia coli, UniProt P0ACP1).
T2 construct: full-length, His6-tagged (tag encoded by the 3' primer, C-terminal), pET28a, expressed in E. coli BL21, Ni resin
Briefly: isothermal titration calorimetry, one-site fit. It is filed as binding. Conditions: 25 °C; 15 μM protein, 50 mM FBP injected. (In general: In ITC the heat of successive injections is recorded.)

Series [3] deals with T3, Cra (catabolite repressor/activator) (Escherichia coli, UniProt P0ACP1, R57K/A58G/G59Q/R60Q/S75H/D148I/R149I, form not given).
T3 construct: full-length, His6-tagged (tag encoded by the 3' primer, C-terminal), pET28a, expressed in E. coli BL21, Ni resin
Briefly: isothermal titration calorimetry, one-site fit. It is filed as binding. Conditions: 25 °C; 15 μM protein, 50 mM FBP injected; Tang1541 mutant.

For another series, the target named is Cra mutant (Tang1544) (Escherichia coli, UniProt P0ACP1 1-334, R57K;A58T;G59N;R60Q;S75H;D148I;R149I). Briefly: EMSA; no FBP; less free DNA than Tang1534; EMSA: 50 nM oligonucleotide mixture annealed in TE buffer, with or without 1 mM FBP, 15 min at 30 C, nondenaturing 10% polyacrylamide gel, ethidium bromide; binding salt and pH not stated. Conditions: protein: recombinant; tags: His6; chain copies: 2; label: none (ethidium bromide stain); blunt.

A further series has as its target Cra wild type (Escherichia coli, UniProt P0ACP1 1-334). Nature of the series: EMSA; no FBP; EMSA: 50 nM oligonucleotide mixture annealed in TE buffer, with or without 1 mM FBP, 15 min at 30 C, nondenaturing 10% polyacrylamide gel, ethidium bromide; binding salt and pH not stated. The settings on record: protein: recombinant; tags: His6; chain copies: 4; label: none (ethidium bromide stain); blunt.

Consider `O=P(O)(O)OC[C@H]1OC(O)(COP(=O)(O)O)[C@@H](O)[C@@H]1O` (some centres unmarked) [FBP, fructose-1,6-bisphosphate], for which the Kd was 95 ± 24 nM in series [1], 1400 nM in series [2] and 130 ± 37 nM in series [3].

B1: aceBAK 18-bp Cra site (dsDNA)
DNA 1: TCGTTAAGCGATTCAGCA
DNA 2: TGCTGAATCGCTTAACGA
Turning to B1, the binding result in the series with Cra mutant (Tang1544) and with Cra wild type was “binds” in each case.

By Kd is commonly meant the constant that tells how readily two partners part at equilibrium. A higher Kd goes with a looser complex.

Source of the values: article PMC5109907, “Enhancing succinic acid biosynthesis in Escherichia coli by engineering its global transcription factor, catabolite repressor/activator (Cra)” (Scientific Reports, 2016).
